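Five compound concentrations were applied to cells in 96-well plates for 48 hours; endpoints were derived by simple linear interpolation of the resulting dose-response curve. Definition used: TGI = concentration required for complete inhibition of growth.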
Legend:
Test in all cases: DTP human tumour cell line panel, 48 h
ACHN renal = test system: ACHN renal
OVCAR-8 ovarian = test system: OVCAR-8 ovarian
KM12 colon = test system: KM12 colon
DU-145 prostate = test system: DU-145 prostate
OVCAR-3 ovarian = test system: OVCAR-3 ovarian
EKVX NSCLC = test system: EKVX NSCLC
CCRF-CEM leukemia = test system: CCRF-CEM leukemia
A549 NSCLC = test system: A549 NSCLC
NCI-H460 lung = test system: NCI-H460 lung
NCI-H23 lung = test system: NCI-H23 lung
UACC-257 melanoma = test system: UACC-257 melanoma
TK-10 renal = test system: TK-10 renal
T-47D breast = test system: T-47D breast
M14 melanoma = test system: M14 melanoma
SNB-19 CNS = test system: SNB-19 CNS
HL-60(TB) leukemia = test system: HL-60(TB) leukemia
HOP-62 NSCLC = test system: HOP-62 NSCLC
CAKI-1 renal = test system: CAKI-1 renal
SK-OV-3 ovarian = test system: SK-OV-3 ovarian
SF-539 CNS = test system: SF-539 CNS
RXF 393 renal = test system: RXF 393 renal
K-562 leukemia = test system: K-562 leukemia
COLO 205 colon = test system: COLO 205 colon
NCI-H226 lung = test system: NCI-H226 lung
NCI/ADR-RES ovarian = test system: NCI/ADR-RES ovarian
MOLT-4 leukemia = test system: MOLT-4 leukemia
HCC-2998 colon = test system: HCC-2998 colon
MDA-MB-435 = test system: MDA-MB-435
HCT-15 colon = test system: HCT-15 colon
HCT-116 colon = test system: HCT-116 colon
OVCAR-4 ovarian = test system: OVCAR-4 ovarian
SN12C renal = test system: SN12C renal
HT29 colon = test system: HT29 colon
SNB-75 CNS = test system: SNB-75 CNS
786-0 renal = test system: 786-0 renal
SR leukemia = test system: SR leukemia
RPMI-8226 leukemia = test system: RPMI-8226 leukemia
HS 578T breast = test system: HS 578T breast
UACC-62 melanoma = test system: UACC-62 melanoma
MDA-N = test system: MDA-N
UO-31 renal = test system: UO-31 renal
MDA-MB-231 breast = test system: MDA-MB-231 breast
SF-295 CNS = test system: SF-295 CNS
BT-549 breast = test system: BT-549 breast
SK-MEL-28 melanoma = test system: SK-MEL-28 melanoma
SF-268 CNS = test system: SF-268 CNS
MCF7 breast = test system: MCF7 breast
PC-3 prostate = test system: PC-3 prostate
SK-MEL-5 melanoma = test system: SK-MEL-5 melanoma
U251 CNS = test system: U251 CNS
IGROV1 ovarian = test system: IGROV1 ovarian
NCI-H522 lung = test system: NCI-H522 lung
SW-620 colon = test system: SW-620 colon
MALME-3M melanoma = test system: MALME-3M melanoma
LOX IMVI melanoma = test system: LOX IMVI melanoma
OVCAR-5 ovarian = test system: OVCAR-5 ovarian

Measured: TGI

CN(C)c1ccc(/C=C2\Oc3ccccc3C2=O)cc1
not listed: MALME-3M melanoma | LOX IMVI melanoma | OVCAR-5 ovarian
> 100 µM: all other assays above

CN(C(=O)CC(=O)CP(=O)(c1ccccc1)c1ccccc1)c1ccccc1
not listed: MALME-3M melanoma | LOX IMVI melanoma | OVCAR-5 ovarian
> 100 µM: all other assays above

COc1ccc(CCn2nccc2C)cc1
not listed: NCI-H226 lung | HCC-2998 colon | 786-0 renal | NCI-H522 lung
> 100 µM: all other assays above
